For assay [1], the target named is T1, mTOR (Rattus norvegicus, UniProt P42346).
T1 construct: expressed in transfected cells; host or cells: 293T
Nature of the assay: Immune complex assay of mTOR activity after incubating 293T cells with compound. It counts as cell-based. The following applies: for mTOR activity: 293T cells incubated with increasing concentrations. On the procedure: FIGS. 12A & 12B represent data showing the effects of incubating cells with increasing concentrations of FTS and GTS on mTOR activity and mTOR association with raptor and mLST8. AU1-mTOR, HA-raptor, and HAmLST8 were overexpressed in 293T cells. The cells were then incubated for 1 h with increasing concentrations of FTS (●, ▴, ▪) or GTS (∘, Δ, □) before extracts were prepared. Immunoprecipitations were then conducted with anti-AU1 antibodies. mTOR kinase activity (●, ∘) was determined by measuring ^32P incorporation into [His^6]PHAS-I in immune complex kinases assays performed with [γ-^32P]ATP. The relative amounts of HA-raptor (▴, Δ) and HA-mLST8 (▪, □) that coimmunoprecipitated with AU1-mTOR were determined after immunoblotting with anti-HA antibodies. The results (mean values±S.E. from 3 experiments) are expressed as percentages of the mTOR activity (FIG. 12A) or coimmunoprecipitating proteins (FIG. 12B) from samples incubated without FTS or GTS, and have been corrected for the amounts of AU1-mTOR immunoprecipitated.
FIG. 12A presents results of immune complex kinases assays with AU1-mTOR from extracts of 293T cells that had been incubated with increasing concentrations of FTS.
Immune complex assay of mTOR activity—AU1-mTOR was immunoprecipitated by using anti-AU1 antibody bound to protein G-agarose beads as described previously (McMahon, et al., (2002) Mol. Cell. Biol. 22, 7428-7438). Endogenous mTOR was immunoprecipitated in the same manner, except that mTAb1 was used instead of anti-AU1 antibody. To measure kinase activity, exhaustively washed immune complexes were suspended in 20 μl of Buffer A (50 mM NaCl, 0.1 mM EGTA, 1 mM dithiothreitol (DTT), […], 10 mM Na-HEPES, and 50 mM β-glycerophosphate, pH 7.4.). The kinase reactions were initiated by adding 20 μl of Buffer A supplemented with 2 mM [γ-^32P]ATP, 20 mM MnCl2 and 40 μg/ml of [His^6]PHAS-I. In experiments in which the effects of wortmannin were investigated, DTT was omitted from the reactions, and [His^6]PHAS-I that had been reduced and alkylated with N-ethylmaleimide was used as substrate. Reactions were terminated after 10 min at 30° by adding SDS sample buffer. Samples were subjected to SDS-PAGE and the relative amounts of ^32P incorporated into [His^6]PHAS-I were determined.

Assay [2] deals with T1, mTOR. Nature of the assay: Immune complex assay of mTOR activity, compound added to extracts or immune complexes. It counts as biochemical. The following applies: for PHAS-I kinase activity of AU1-mTOR: extracts incubated with increasing concentrations. The procedure: 293T cells were transfected with expression vectors for AU1-epitope tagged mTOR, HA-tagged raptor, and HA-tagged mLST8. After 24 h, the overexpressed mTOR was immunoprecipitated with AU1 antibodies, and immune complexes were incubated with increasing concentrations of FTS in a reaction mixture containing 2 mM [γ^32P] ATP (250 μCi/ml), 20 mM MnCl2, and 0.1 mg/ml purified recombinant histidine-tagged PHAS-1. After fifteen minutes the reaction was stopped by adding SDS sample buffer, and samples were subjected to SDS-PAGE. The amount of ^32P incorporated into PHAS-I was determined and expressed as a percentage of that incorporated in the absence of FTS. Mean values±the half the range of two experiments are presented.
293T cells were transfected with pcDNA3 alone (Vec.) or with a combination of pcDNA3AU1-mTOR, pcDNA33HA-Raptor, and pcDNA33HA-mLST8. Extracts of the cells were incubated with increasing concentrations of FTS before AU1-mTOR was immunoprecipated. Samples of the immune complexes were incubated with [γ-^32P]ATP and recombinant [His^6]PHAS-I, then subjected to SDS-PAGE and transferred to an immobilon membrane. After obtaining a phosphorimage of the membrane to detect ^32P-PHAS-I, the membrane was immunoblotted with PThr^36/45 antibodies. Other samples of the immune complexes were subjected to SDS-PAGE and immunoblots were prepared with antibodies to the HA epitope or to mTOR (see FIG. 13A). Extracts of nontransfected 293T cells were incubated with increasing concentrations of FTS before mTOR was immunoprecipated with mTAb1. A control immunoprecipitation was conducted using nonimmune IgG (NI). Immune complexes were subjected to SDS-PAGE and immunoblots were prepared with antibodies to mLST8, mTOR, and raptor.
Samples of extracts from 293T cells overexpressing AU1-mTOR, HA-raptor, and HA-mLST8 were incubated for 1 h with increasing concentrations of FTS (●, ▴, ▪) or GTS (∘, Δ, □) before immunoprecipitations were conducted with anti-AU1 antibodies. mTOR kinase activity (●, ∘) was determined by measuring ^32P incorporation into [His^6]PHAS-I in immune complex kinases assays performed with [γ-^32P]ATP (see FIG. 14A). The relative amounts of HA-raptor (▴, Δ) and HA-mLST8 (▪, □) that coimmunoprecipitated with AU1-mTOR were determined after immunoblotting with anti-HA antibodies (see FIG. 14B). The results (mean values+S.E. from 5 experiments) are expressed as percentages of the mTOR activity (FIG. 14A) or coimmunoprecipitating proteins (FIG. 14B) from samples incubated without FTS or GTS, and have been corrected for the amounts of AU1-mTOR immunoprecipitated.
293T cells were transfected with pcDNA3 alone (Vec.) or with a combination of pcDNA3AU1-mTOR, pcDNA33HARaptor, and pcDNA33HA-mLST8. AU1-mTOR was immunoprecipitated and samples of the washed immune complexes were at incubated […] for 30 min with no inhibitors or with the following: caffeine (1 mM), FTS (50 μM), LY294002 (10 μM), rapamycin (1 μM) plus FKBP12 (10 μM), and 1 μM wortmannin. To prevent destruction of wortmannin, incubations were conducted in the absence of thiol reducing agents. Samples of the immune complexes were incubated for 10 min with 10 mM MnCl2, 1 mM [γ-^32P]ATP, and 50 μg/ml [His^6]PHAS-I to assess mTOR activity. Other samples were rinsed twice, subjected to SDS-PAGE, and immunoblotted with anti-HA and anti-AU1 antibodies to determine the amounts of HA-raptor and HA-mLST8 associated with AU1-mTOR. The relative amounts of ^32P incorporated into PHAS-I were determined by phosphorimaging (see FIG. 15B).

In the case of `CC(C)=CCC/C(C)=C/CC/C(C)=C/CSc1ccccc1C(=O)O` [FTS, farnesylthiosalicylic acid], on mTOR [1] (293T cells incubated 1 h, read-out: half maximal effect on inhibition of AU1-mTOR activity), the IC50 was in the range of 20 to 30 µM. In addition, at mTOR [1], the mTOR activity entry is given as “stable decrease in mTOR activity”. Besides, on mTOR [2], the “concentration at which the effect on mTOR kinase activity could be seen” value turned out to be 25 µM, the “concentration of maximal effect on mTOR kinase activity” value was 100 µM and the “PHAS-I kinase activity of AU1-mTOR” value is “progressively decreased”. For the same molecule, at mTOR [2] (FTS 50 μM, comparison with other mTOR inhibitors), the mTOR activity entry is reported as “decreased”. In addition, the “concentrations needed to inhibit mTOR activity in vitro relative to intact cells” value at mTOR [2] (extracts vs intact cells) is “Approximately four times lower”. Moreover, the “ability of mTOR to phosphorylate a substrate specific to mTOR” value on mTOR [2] (recombinant mTOR immunoprecipitated from transfected cells) is recorded as “completely blocked”.

Take `CC(C)=CCC/C(C)=C/CSc1ccccc1C(=O)O` [GTS, S-geranylthiosalicylic acid, reference compound]: the mTOR activity result at mTOR [1] was “slightly decreased”. In addition, the “PHAS-I kinase activity of AU1-mTOR” value on mTOR [2] is given as “progressive decreases”. Further, at mTOR [2] (extracts of transfected cells), the “concentrations for effects on AU1-mTOR activity and AU1-mTOR/HA-raptor association relative to FTS” value is listed as “approximately ten times higher”.

The values are drawn from patent US20070037887A1, “Blockade of mtor to prevent a hormonal adaptive response” (University of Virginia Patent Foundation, priority 2003, published 2007).
